Tests used:
E. coli [1] = assay: Antimicrobial efficacy (log reduction) at fixed concentration and contact time; assay type: cell-based, Escherichia coli; conditions: for Antimicrobial efficacy (Log reduction): contact time 1 minute; for Antimicrobial efficacy (Log reduction) / Antimicrobial Efficacy (log reduction): 10 ppm
Method: Antimicrobial activity of the agents in aqueous solution was evaluated by a minimum inhibitory concentration (MIC) procedure (Kaminski, J. J., Hyycke, N. M. et al., Pharm. Sci., 65(12):1737 (1976)). MIC refers to the lowest concentration of biocides that prohibit population and reproduction of microorganisms. In this method, 1 mL of an aqueous suspension containing 10^6˜10^7 colony-forming units (CFU)/mL of Staphylococcus aureus (S. aureus, ATCC #12600, Gram-positive) or Escherichia coli (E. coli, K-12, Gram-negative) were placed into 9 mL aqueous solutions containing different concentrations of the agents for a contact time of 24 hours. After the contact, a 100 μL aliquot of the resultant solution was serially diluted by sterilized distilled water to 10^1, 10^2, 10^3, 10^4 and 10^5. 100 μL of the last four dilutions were placed onto a nutrient agar plate and incubated at 37° C. for 24 hours. The same procedure was applied to a distilled water solution without the antimicrobial agents as a control. In this paper, the reported MIC of the antimicrobial colorants is the minimum concentrations that can eliminate more than 4 log reductions of bacteria (1 log reduction is 90%, 2 log reduction is 99%, and so forth).
To better study the biocidal rate of these colorants, the antimicrobial efficacy of the colorants in terms of log reduction is assessed against E. Coli under different contact time ranging from 15 minutes to 24 hours.
Next, the antimicrobial efficacy of the colorants is further challenged by reducing the contact time down to 1 minute at the concentration of 10 ppm.

S. aureus = assay: as above; assay type: cell-based, Staphylococcus aureus; conditions: contact time 1 minute, 10 ppm
[2] = tested on: Escherichia coli (E. coli, K-12, Gram-negative); assay: Minimum inhibitory concentration (MIC) procedure in aqueous solution; assay type: cell-based; conditions: 10^7~10^8 CFU/mL, contact time: 24 hr, MIC = minimum concentration giving more than 4 log reductions
Method: (§1) Antimicrobial activity of the agents in aqueous solution was evaluated by a minimum inhibitory concentration (MIC) procedure ([…]. et al., Pharm. Sci., 65(12):1737 (1976)). MIC refers to the lowest concentration of biocides that prohibit population and reproduction of microorganisms. […] Antimicrobial properties of the antimicrobial colorants in aqueous solutions were measured by the MIC procedure.

[3] = tested on: Staphylococcus aureus (S. aureus, ATCC #12600, Gram-positive); assay: as above; assay type: cell-based; conditions: 10^7~10^8 CFU/mL, contact time: 24 hr, MIC = minimum concentration giving more than 4 log reductions
Method: as §1

E. coli [4] = assay: Antimicrobial efficacy (log reduction) at fixed concentration and contact time; assay type: cell-based, Escherichia coli; conditions: E. coli 10^7~10^8 CFU/ml; for Antimicrobial Efficacy (log reduction): 10 ppm
[5] = Stability study of colorant solutions by UV-vis absorbance; assay type: physicochemical; conditions: 100 ppm aqueous; 100° C. for 4 hours
Method: The stability of the antimicrobial colorants was qualitatively studied by using a UV-vis spectrophotometer under different experimental conditions. The tests were performed with antimicrobial colorant solutions at the concentration of 100 ppm in flasks. The colorants were sampled and the absorbance at the maximum absorption wavelength was tested before treatment as a reference. After visible light exposure in a conditioning room for over 30 days, or heating at boiling for 4 hours, or changing to different pH conditions (pH=4 and 10) for over 24 hours, the solutions were sampled, centrifuged, filtered and tested by UV. The new UV-vis spectra were taken and compared with the control.
The stability of the antimicrobial colorants is of great importance because they are mostly applied in aqueous solutions as biocides or dyes. All stability tests were conducted at a concentration of 100 ppm.
In practical applications, these colorants could be used under either acidic or basic conditions, particularly in coloration of acrylics, nylon and wool. For example, acidic dye bath is preferred for dyeing wool fabrics. Thus, the stability of the colorants in low or high pH solution is more important for textile applications. […] The low stability of those colorants was caused by hydrolysis of an amide linkage between QAS and aminoanthraquinone. […]

| MIC of cationic colorants [2] | MIC of cationic colorants [3] | Change of UV-vis absorbance after heating [5] | Change of UV-vis wavelength after heating [5] | SMILES | Antimicrobial efficacy (Log reduction) (E. coli [1]) | Antimicrobial efficacy (Log reduction) (S. aureus) | Antimicrobial Efficacy (log reduction) (E. coli [4]) | Antimicrobial Efficacy (log reduction) (E. coli [1]; contact time 0.25 hr) | Antimicrobial Efficacy (log reduction) (E. coli [1]; contact time 0.5 hr) | Antimicrobial Efficacy (log reduction) (E. coli [1]; contact time 1 hr) | Antimicrobial Efficacy (log reduction) (E. coli [1]; contact time 2 hr) | Antimicrobial Efficacy (log reduction) (E. coli [1]; contact time 4 hr) | Antimicrobial Efficacy (log reduction) (E. coli [1]; contact time 8 hr) | Antimicrobial Efficacy (log reduction) (E. coli [1]; contact time 16 hr) | Antimicrobial Efficacy (log reduction) (E. coli [1]; contact time 24 hr) | Log reduction (E. coli [4]; 5 ppm, contact time 1 minute) | Biocidal activity compared with CTAB, CPC and Benzalkonium chloride (E. coli [1]; Table 6 conditions) |
| --- | --- | --- | --- | --- | --- | --- | --- | --- | --- | --- | --- | --- | --- | --- | --- | --- | --- |
| 60 ppm | 60 ppm |  |  | CCCCCCCCCCCCCCCC[N+](C)(C)CC(O)CNc1ccc(NCC(O)C[N+](C)(C)CCCCCCCCCCCCCCCC)c2c1C(=O)c1ccccc1C2=O.[Cl-].[Cl-] (centres unmarked) [Di-16] | 0 Log reduction | 0 Log reduction |  |  |  |  |  |  |  |  |  |  |  |
|  |  |  |  | CCCCCCCCCCCCCCCC[N+](C)(C)C.[Br-] [CTAB, Cetyltrimethyl ammonium bromide, reference compound] |  |  | 0 log reduction |  |  |  |  |  |  |  |  |  |  |
| 5 ppm | 5 ppm |  |  | CCCCCCCC[N+](C)(C)CC(O)CNc1ccc(NCC(O)C[N+](C)(C)CCCCCCCC)c2c1C(=O)c1ccccc1C2=O.[Cl-].[Cl-] (centres unmarked) [Di-8] |  |  |  | >4 log reduction | >4 log reduction | >4 log reduction | >4 log reduction | >4 log reduction | >4 log reduction | >4 log reduction | >4 log reduction | 1 Log reduction |  |
|  |  |  |  | CCCCCCCCCCCCCCCC[N+](C)(C)Cc1ccccc1.[Cl-] [Benzalkonium chloride, Benzyldimethyl-hexadecylammonium chloride, reference compound] |  |  | 2 log reduction |  |  |  |  |  |  |  |  |  |  |
| 200 ppm | 200 ppm |  |  | CCCC[N+](C)(C)CC(O)CNc1ccc(NCC(O)C[N+](C)(C)CCCC)c2c1C(=O)c1ccccc1C2=O.[Cl-].[Cl-] (centres unmarked) [Di-4] | 0 Log reduction | 0 Log reduction |  | 0 log reduction | 0 log reduction | 0 log reduction | 0 log reduction | 0 log reduction | 0 log reduction | 0 log reduction | 0 log reduction |  |  |
| 60 ppm | 60 ppm |  |  | CCCCCCCCCCCCCCCC[N+](C)(C)CC(O)CNc1cccc2c1C(=O)c1ccccc1C2=O.[Cl-] (centres unmarked) [Compound M-16] | 0 Log reduction | 0 Log reduction |  |  |  |  |  |  |  |  |  |  |  |
| 4 ppm | 4 ppm | slight increases in absorbance | negligible change | CCCCCCCCCCCC[N+](C)(C)CC(O)CNc1ccc(NCC(O)C[N+](C)(C)CCCCCCCCCCCC)c2c1C(=O)c1ccccc1C2=O.[Cl-].[Cl-] (centres unmarked) [Di-12] |  |  | >5 log reduction | >4 log reduction | >4 log reduction | >4 log reduction | >4 log reduction | >4 log reduction | >4 log reduction | >4 log reduction | >4 log reduction |  | more efficient in biocidal activity than the other three bactericides |
